Test: Single dose study: urinary excretion of eplerenone and open lactone ring form
Assay type: in vivo, humans
Description: The study employed seven parallel dose groups of eight healthy male humans.
The plasma samples collected from subjects dosed with eplerenone were assayed for concentrations of eplerenone and the open lactone ring form of eplerenone. […] A subset of plasma samples was also assayed for testosterone levels. The urine collected was analyzed to determine concentrations and amounts of eplerenone and the open lactone ring form of eplerenone, the amount of sodium and potassium excreted, and the urinary log10 (sodium/potassium) ratio.

Structure (SMILES): COC(=O)C1CC2=CC(=O)CCC2(C)C23OC2CC2(C)C(CC[C@@]24CCC(=O)O4)C13 (stereo partly drawn) [eplerenone, methyl hydrogen 9,11α-epoxy-17α-hydroxy-3-oxopregn-4-ene-7α,21-dicarboxylate, γ-lactone]
- Amount of Eplerenone Excreted in Urine (10 mg dose, 0 to 2 hours): (21.6) mcg
- Concentration of Eplerenone Excreted in Urine (10 mg dose, 0 to 2 hours): 278.0 ng/mL
- Amount of Eplerenone Excreted in Urine (10 mg dose, 0 to 24 hours): (78.8) mcg
- Amount of Eplerenone Excreted in Urine (10 mg dose, 2 to 4 hours): (35.8) mcg
- Concentration of Eplerenone Excreted in Urine (10 mg dose, 2 to 4 hours): 191.1 ng/mL
- Amount of Eplerenone Excreted in Urine (10 mg dose, 4 to 6 hours): (16.5) mcg
- Concentration of Eplerenone Excreted in Urine (10 mg dose, 4 to 6 hours): 107.2 ng/mL
- Amount of Eplerenone Excreted in Urine (10 mg dose, 6 to 8 hours): (7.6) mcg
- Concentration of Eplerenone Excreted in Urine (10 mg dose, 6 to 8 hours): 63.8 ng/mL
- Amount of Eplerenone Excreted in Urine (10 mg dose, 8 to 10 hours): (0) mcg
- Concentration of Eplerenone Excreted in Urine (10 mg dose, 8 to 10 hours): 0 ng/mL
- Amount of Eplerenone Excreted in Urine (10 mg dose, 10 to 12 hours): (0) mcg
- Concentration of Eplerenone Excreted in Urine (10 mg dose, 10 to 12 hours): 0 ng/mL
- Amount of Eplerenone Excreted in Urine (10 mg dose, 12 to 14 hours): (0) mcg
- Concentration of Eplerenone Excreted in Urine (10 mg dose, 12 to 14 hours): 0 ng/mL
- Amount of Eplerenone Excreted in Urine (10 mg dose, 14 to 16 hours): (0) mcg
- Concentration of Eplerenone Excreted in Urine (10 mg dose, 14 to 16 hours): 0 ng/mL
- Amount of Eplerenone Excreted in Urine (10 mg dose, 16 to 24 hours): (0) mcg
- Concentration of Eplerenone Excreted in Urine (10 mg dose, 16 to 24 hours): 0 ng/mL
- Amount of Eplerenone Excreted in Urine (10 mg dose, −9 to 0 hours): (0) mcg
- Concentration of Eplerenone Excreted in Urine (10 mg dose, −9 to 0 hours): 0 ng/mL
- Amount of Eplerenone Excreted in Urine (50 mg dose, 0 to 2 hours): (99.2) mcg
- Concentration of Eplerenone Excreted in Urine (50 mg dose, 0 to 2 hours): 1252.2 ng/mL
- Amount of Eplerenone Excreted in Urine (50 mg dose, 0 to 24 hours): (410.6) mcg
- Amount of Eplerenone Excreted in Urine (50 mg dose, 2 to 4 hours): (175.3) mcg
- Concentration of Eplerenone Excreted in Urine (50 mg dose, 2 to 4 hours): 1064.6 ng/mL
- Amount of Eplerenone Excreted in Urine (50 mg dose, 4 to 6 hours): (60.6) mcg
- Concentration of Eplerenone Excreted in Urine (50 mg dose, 4 to 6 hours): 518.3 ng/mL
- Amount of Eplerenone Excreted in Urine (50 mg dose, 6 to 8 hours): (30.7) mcg
- Concentration of Eplerenone Excreted in Urine (50 mg dose, 6 to 8 hours): 307.3 ng/mL
- Amount of Eplerenone Excreted in Urine (50 mg dose, 8 to 10 hours): (27.6) mcg
- Concentration of Eplerenone Excreted in Urine (50 mg dose, 8 to 10 hours): 172.4 ng/mL
- Amount of Eplerenone Excreted in Urine (50 mg dose, 10 to 12 hours): (16.5) mcg
- Concentration of Eplerenone Excreted in Urine (50 mg dose, 10 to 12 hours): 72.7 ng/mL
- Amount of Eplerenone Excreted in Urine (50 mg dose, 12 to 14 hours): (11.3) mcg
- Concentration of Eplerenone Excreted in Urine (50 mg dose, 12 to 14 hours): 23.1 ng/mL
- Amount of Eplerenone Excreted in Urine (50 mg dose, 14 to 16 hours): (1.5) mcg
- Concentration of Eplerenone Excreted in Urine (50 mg dose, 14 to 16 hours): 21.6 ng/mL
- Amount of Eplerenone Excreted in Urine (50 mg dose, 16 to 24 hours): (4.0) mcg
- Concentration of Eplerenone Excreted in Urine (50 mg dose, 16 to 24 hours): 13.1 ng/mL
- Amount of Eplerenone Excreted in Urine (50 mg dose, −9 to 0 hours): (0) mcg
- Concentration of Eplerenone Excreted in Urine (50 mg dose, −9 to 0 hours): 0 ng/mL
- Amount of Eplerenone Excreted in Urine (100 mg dose, 0 to 2 hours): (360.2) mcg
- Concentration of Eplerenone Excreted in Urine (100 mg dose, 0 to 2 hours): 2623.3 ng/mL
- Amount of Eplerenone Excreted in Urine (100 mg dose, 0 to 24 hours): (1271.4) mcg
- Amount of Eplerenone Excreted in Urine (100 mg dose, 2 to 4 hours): (407.6) mcg
- Concentration of Eplerenone Excreted in Urine (100 mg dose, 2 to 4 hours): 2305.6 ng/mL
- Amount of Eplerenone Excreted in Urine (100 mg dose, 4 to 6 hours): (285.1) mcg
- Concentration of Eplerenone Excreted in Urine (100 mg dose, 4 to 6 hours): 1157.3 ng/mL
- Amount of Eplerenone Excreted in Urine (100 mg dose, 6 to 8 hours): (158.8) mcg
- Concentration of Eplerenone Excreted in Urine (100 mg dose, 6 to 8 hours): 627.6 ng/mL
- Amount of Eplerenone Excreted in Urine (100 mg dose, 8 to 10 hours): (69.1) mcg
- Concentration of Eplerenone Excreted in Urine (100 mg dose, 8 to 10 hours): 362.9 ng/mL
- Amount of Eplerenone Excreted in Urine (100 mg dose, 10 to 12 hours): (44.7) mcg
- Concentration of Eplerenone Excreted in Urine (100 mg dose, 10 to 12 hours): 146.6 ng/mL
- Amount of Eplerenone Excreted in Urine (100 mg dose, 12 to 14 hours): (26.6) mcg
- Concentration of Eplerenone Excreted in Urine (100 mg dose, 12 to 14 hours): 110.3 ng/mL
- Amount of Eplerenone Excreted in Urine (100 mg dose, 14 to 16 hours): (6.6) mcg
- Concentration of Eplerenone Excreted in Urine (100 mg dose, 14 to 16 hours): 36.5 ng/mL
- Amount of Eplerenone Excreted in Urine (100 mg dose, 16 to 24 hours): (2.7) mcg
- Concentration of Eplerenone Excreted in Urine (100 mg dose, 16 to 24 hours): 7.1 ng/mL
- Amount of Eplerenone Excreted in Urine (100 mg dose, −9 to 0 hours): (0) mcg
- Concentration of Eplerenone Excreted in Urine (100 mg dose, −9 to 0 hours): 0 ng/mL
- Amount of Eplerenone Excreted in Urine (300 mg dose, 0 to 2 hours): (677.7) mcg
- Concentration of Eplerenone Excreted in Urine (300 mg dose, 0 to 2 hours): 9370.1 ng/mL
- Amount of Eplerenone Excreted in Urine (300 mg dose, 0 to 24 hours): (2872.3) mcg
- Amount of Eplerenone Excreted in Urine (300 mg dose, 2 to 4 hours): (873.7) mcg
- Concentration of Eplerenone Excreted in Urine (300 mg dose, 2 to 4 hours): 6465.9 ng/mL
- Amount of Eplerenone Excreted in Urine (300 mg dose, 4 to 6 hours): (672.6) mcg
- Concentration of Eplerenone Excreted in Urine (300 mg dose, 4 to 6 hours): 3865.2 ng/mL
- Amount of Eplerenone Excreted in Urine (300 mg dose, 6 to 8 hours): (337.0) mcg
- Concentration of Eplerenone Excreted in Urine (300 mg dose, 6 to 8 hours): 2237.8 ng/mL
- Amount of Eplerenone Excreted in Urine (300 mg dose, 8 to 10 hours): (307.9) mcg
- Concentration of Eplerenone Excreted in Urine (300 mg dose, 8 to 10 hours): 1208.6 ng/mL
- Amount of Eplerenone Excreted in Urine (300 mg dose, 10 to 12 hours): (162.4) mcg
- Concentration of Eplerenone Excreted in Urine (300 mg dose, 10 to 12 hours): 542.4 ng/mL
- Amount of Eplerenone Excreted in Urine (300 mg dose, 12 to 14 hours): (97.4) mcg
- Concentration of Eplerenone Excreted in Urine (300 mg dose, 12 to 14 hours): 419.6 ng/mL
- Amount of Eplerenone Excreted in Urine (300 mg dose, 14 to 16 hours): (52.2) mcg
- Concentration of Eplerenone Excreted in Urine (300 mg dose, 14 to 16 hours): 292.6 ng/mL
- Amount of Eplerenone Excreted in Urine (300 mg dose, 16 to 24 hours): (50.4) mcg
- Concentration of Eplerenone Excreted in Urine (300 mg dose, 16 to 24 hours): 126.4 ng/mL
- Amount of Eplerenone Excreted in Urine (300 mg dose, −9 to 0 hours): (0) mcg
- Concentration of Eplerenone Excreted in Urine (300 mg dose, −9 to 0 hours): 0 ng/mL
- Amount of Eplerenone Excreted in Urine (1000 mg dose, 0 to 2 hours): (1482.0) mcg
- Concentration of Eplerenone Excreted in Urine (1000 mg dose, 0 to 2 hours): 17858.6 ng/mL
- Amount of Eplerenone Excreted in Urine (1000 mg dose, 0 to 24 hours): (17246.6) mcg
- Amount of Eplerenone Excreted in Urine (1000 mg dose, 2 to 4 hours): (5983.3) mcg
- Concentration of Eplerenone Excreted in Urine (1000 mg dose, 2 to 4 hours): 24460.3 ng/mL
- Amount of Eplerenone Excreted in Urine (1000 mg dose, 4 to 6 hours): (4041.5) mcg
- Concentration of Eplerenone Excreted in Urine (1000 mg dose, 4 to 6 hours): 13899.7 ng/mL
- Amount of Eplerenone Excreted in Urine (1000 mg dose, 6 to 8 hours): (2083.0) mcg
- Concentration of Eplerenone Excreted in Urine (1000 mg dose, 6 to 8 hours): 8782.1 ng/mL
- Amount of Eplerenone Excreted in Urine (1000 mg dose, 8 to 10 hours): (1853.9) mcg
- Concentration of Eplerenone Excreted in Urine (1000 mg dose, 8 to 10 hours): 4491.0 ng/mL
- Amount of Eplerenone Excreted in Urine (1000 mg dose, 10 to 12 hours): (1177.2) mcg
- Concentration of Eplerenone Excreted in Urine (1000 mg dose, 10 to 12 hours): 2361.1 ng/mL
- Amount of Eplerenone Excreted in Urine (1000 mg dose, 12 to 14 hours): (892.8) mcg
- Concentration of Eplerenone Excreted in Urine (1000 mg dose, 12 to 14 hours): 3183.7 ng/mL
- Amount of Eplerenone Excreted in Urine (1000 mg dose, 14 to 16 hours): (340.5) mcg
- Concentration of Eplerenone Excreted in Urine (1000 mg dose, 14 to 16 hours): 1405.2 ng/mL
- Amount of Eplerenone Excreted in Urine (1000 mg dose, 16 to 24 hours): (366.0) mcg
- Concentration of Eplerenone Excreted in Urine (1000 mg dose, 16 to 24 hours): 658.0 ng/mL
- Amount of Eplerenone Excreted in Urine (1000 mg dose, −9 to 0 hours): (0) mcg
- Concentration of Eplerenone Excreted in Urine (1000 mg dose, −9 to 0 hours): 0 ng/mL
